The NIST ThermoML archive (doi:10.1021/acs.jced.7b00518)
± gives the expanded uncertainty stated by the source.

Assays:
[1] = Molar enthalpy of transition or fusion; conditions: Crystal; DSC
[2] = Crystal; DTA

- Molar enthalpy of transition or fusion [1]: 17.8 ± 0.478 kcal/mol
- Normal melting temperature [2]: 173.47 ± 0.61 °C
SMILES: O=C(O)/C=C/C(=O)O.OCCOCCN1CCN(C2=Nc3ccccc3Sc3ccccc32)CC1.OCCOCCN1CCN(C2=Nc3ccccc3Sc3ccccc32)CC1 [quetiapine fumarate]
